Molecular target: T1, pig T1R2–T1R3 (Sus scrofa, UniProt I1ZBR6+Q0EF93)
T1 construct: gene TAS1R2; heterodimer; full-length, custom-synthesised genes in modified pcDNA3/TO; N-terminal rat sst3 tags, C-terminal FLAG or HSV tags; HEK293PEAKrapid cells stably expressing Galpha15
T1 sequence (I1ZBR6 20-835): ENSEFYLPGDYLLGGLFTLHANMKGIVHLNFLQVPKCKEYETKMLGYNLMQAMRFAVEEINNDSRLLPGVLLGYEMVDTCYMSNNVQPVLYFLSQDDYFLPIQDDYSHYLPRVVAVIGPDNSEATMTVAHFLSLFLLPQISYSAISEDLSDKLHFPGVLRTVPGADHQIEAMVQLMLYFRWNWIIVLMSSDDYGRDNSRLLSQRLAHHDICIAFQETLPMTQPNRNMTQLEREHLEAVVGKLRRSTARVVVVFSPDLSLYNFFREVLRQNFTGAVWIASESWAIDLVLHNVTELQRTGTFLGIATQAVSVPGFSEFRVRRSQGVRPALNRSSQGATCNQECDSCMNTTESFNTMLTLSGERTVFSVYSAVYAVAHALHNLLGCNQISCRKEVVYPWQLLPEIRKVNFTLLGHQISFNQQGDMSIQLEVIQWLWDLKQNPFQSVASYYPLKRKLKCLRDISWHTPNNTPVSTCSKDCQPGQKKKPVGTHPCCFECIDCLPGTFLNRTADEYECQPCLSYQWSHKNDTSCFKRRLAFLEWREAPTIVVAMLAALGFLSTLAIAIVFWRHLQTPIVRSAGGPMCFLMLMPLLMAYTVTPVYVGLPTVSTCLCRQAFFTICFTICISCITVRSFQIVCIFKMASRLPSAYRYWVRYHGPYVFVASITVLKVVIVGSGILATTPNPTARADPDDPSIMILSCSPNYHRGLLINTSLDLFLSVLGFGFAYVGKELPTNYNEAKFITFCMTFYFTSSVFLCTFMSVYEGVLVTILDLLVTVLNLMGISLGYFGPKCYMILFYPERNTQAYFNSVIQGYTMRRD
T1 sequence (Q0EF93 19-855): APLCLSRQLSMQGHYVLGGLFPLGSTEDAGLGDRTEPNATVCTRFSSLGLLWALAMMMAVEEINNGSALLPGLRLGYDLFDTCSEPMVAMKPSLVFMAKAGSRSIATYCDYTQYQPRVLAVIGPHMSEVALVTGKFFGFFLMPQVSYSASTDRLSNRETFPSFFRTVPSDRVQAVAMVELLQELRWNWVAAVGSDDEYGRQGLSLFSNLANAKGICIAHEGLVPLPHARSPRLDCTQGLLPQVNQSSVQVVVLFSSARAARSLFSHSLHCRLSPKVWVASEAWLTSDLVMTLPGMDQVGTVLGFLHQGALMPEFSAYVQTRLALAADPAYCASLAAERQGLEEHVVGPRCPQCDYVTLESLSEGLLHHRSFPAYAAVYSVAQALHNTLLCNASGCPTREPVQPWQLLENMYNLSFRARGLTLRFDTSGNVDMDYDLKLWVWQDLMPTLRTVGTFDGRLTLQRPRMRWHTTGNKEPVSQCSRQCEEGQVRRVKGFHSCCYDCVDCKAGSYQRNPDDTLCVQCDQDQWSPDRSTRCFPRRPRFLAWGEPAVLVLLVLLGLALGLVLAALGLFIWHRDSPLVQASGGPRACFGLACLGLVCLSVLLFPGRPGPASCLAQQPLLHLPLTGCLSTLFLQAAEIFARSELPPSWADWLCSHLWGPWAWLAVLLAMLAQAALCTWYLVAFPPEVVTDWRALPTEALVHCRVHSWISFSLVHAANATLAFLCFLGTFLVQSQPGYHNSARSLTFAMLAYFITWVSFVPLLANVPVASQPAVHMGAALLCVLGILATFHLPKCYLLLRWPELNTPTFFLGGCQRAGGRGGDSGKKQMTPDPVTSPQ
Experiment: calcium mobilisation (Fluo-4), FlexStation3
Format: cell-based
Details: agonist; transfected HEK293PEAKrapid Galpha15 cells; mock-transfected control; curves in mg/mL

In the case of `COc1cc(C=O)ccc1O` [vanillin], the EC50 is reported as “activation in response to stimulation with either each sweetener component of SMF (A)”.
